Laboratory results reported in patent US9969753B2, “BCR-ABL diploid inhibitor, synthesizing method therefor, and uses thereof” (CHENGDU UNIVERSITY, priority 2014, dated 2018).

Experiments:
[1] = Preliminary pharmacokinetic study, single intravenous dosage; type: in vivo, female C57BL/6(Es-1^c) nude mice; settings: female, C57BL/6(Es-1^c) nude, mouse, whole blood; intravenous 1 mg/kg, mice, non-compartmental model
Procedure: Experiment methods and procedures are as follows: female C57BL/6(Es-1^c) nude mice, weight 18-25 g, age 6-8 weeks, other, 3 female C57BL/6(Es-1^c) nude mice for blank samples, prepare for the standard curve for analysis. Intravenous dosage 1 mg/kg, delivery volume 5 mL/kg. Intravenous injection drug solution: DMSO:Solutol HS15:Saline=5:5:90, v/v/v. […] Female C57BL/6(Es-1^c) nude mice after intravenous injection dosage collect about 20 μL bloods from the mouse tail vein at 0.25 h, 2 h, 8 h and 24 h, use K2EDTA anticoagulant. Use steamed water to dilute the blood sample in accordance with volume in 3 times and store the diluted blood sample at −70° C. for analysis.
Data analysis: use WinNonlin (version 6.2) software, based on non-compartmental model to calculate the pharmacokinetic parameters.
Experiment methods and procedures are as follows: female C57BL/6(Es-1^c) nude mice, weight 18-25 g, age 6-8 weeks, other, 3 female C57BL/6(Es-1^c) nude mice for blank samples, prepare for the standard curve for analysis. Intravenous dosage 1 mg/kg, delivery volume 5 mL/kg. Intravenous injection drug solution: DMSO:Solutol HS15:Saline=5:5:90, v/v/v. […] Female C57BL/6(Es-1^c) nude mice after intravenous injection dosage collect about 20 μL blood from the mouse tail vein at 0.25h, 2h, 8h and 24 h, use K2EDTA anticoagulant. Use steamed water to dilute the blood sample in accordance with volume in 3 times and store the diluted blood sample at −70° C. for analysis.
Experiment methods and procedures are as follows: female C57BL/6(Es-1^c) nude mice, weight 18-25 g, age 6-8 weeks, other, 3 female C57BL/6(Es-1^c) nude mice for blank samples, prepare for the standard curve for analysis. Intravenous dosage 1 mg/kg, delivery volume 5 mL/kg.

[2] = system: KBM5 (Bcr-Abl positive) cell subcutaneous implanted tumor; test: Leukemia subcutaneous xenograft growth inhibition test, KBM5; type: in vivo, C57BL/6(Es-1^c) nude mice; settings: dosed once a day for two weeks, tumor volume; for inhibitory effect compared with Imatinib in KBM5 subcutaneous tumor model: positive control 160 mg/Kg Imatinib
From the text: According to the test results of the growth inhibition in vitro, assess inhibitory effect of the BGC to transplant subcutaneously in C57BL/6(Es-1^c) nude mice with human leukemia KBM5 cells growth.
Study tumor growth if it can be inhibited, slowed or cured. Twice a week or every other day, use a vernier caliper to measure the tumor size. The calculation formula of tumor volume: V=0.5a×b^2, a, b respectively represent the long and short radius of the tumor.
(§1) Data analysis: T test is used for the comparison between the two groups; one-way ANOVA is used between three or more groups. If there is a significant difference of f value, multiple comparisons should be used additional to ANOVA analysis. Two-way ANOVA is used to analyze potential synergies of combined drug group. All data analysis use SPSS 17.0; p<0.05 is considered with a significant difference.
According to the test results of the growth inhibition in vitro, select the minimum IC50 of the compound BP of the present invention, assess inhibitory effect of the BP to transplant subcutaneously in C57BL/6(Es-1^c) nude mice with human leukemia KBM5 and KBM5R cells growth.
According to the test results of the growth inhibition in vitro, select the minimum IC50 of the compound BDB of the present invention, assess inhibitory effect of the BDB to transplant subcutaneously in C57BL/6(Es-1^c) nude mice with human leukemia KBM5 and KBM5R cells growth.

[3] = biological target: c-Abl tyrosine kinase (Homo sapiens, UniProt P00519); test: Mobility Shift Assay, inhibition of kinase Abl in vitro; type: biochemical; settings: 10 concentrations 100 μM to 0.005 μM
Procedure: (§2) Using the method of mobility Shift Assay, detect activity of the compound BGC with kinase Abl in vitro. The concentration of BGC was diluted from 100 μM with 100% DMSO to 0.005 μM using 3 times dilution method, 10 concentrations in total for detection (2 duplicate) with staurosporine as standard control, set solvent control (10% DMSO) and negative control (EDTA).
(§3) Detect activity of different concentrations of the compound BGC on 384 holes reaction plate by enzyme-linked immune response on the inhibition of the kinase Abl, read the conversion rate data on Caliper, and convert the conversion rate to inhibition rate. Percent inhibition=(max−conversion)/(max−min)*100
Wherein, max is the conversion rate of DMSO control; min refers to the conversion rate of enzyme-free control.
According to inhibition rate of the concentrations, calculate the half inhibitory concentration IC50 of the compound BGC to tyrosine kinase Abl.
as §2, with “Mobility” for “mobility”, “BP” for “BGC”
as §3, with “BP” for “BGC”
Wherein, max is the conversion rate of DMSO control, min refers to the conversion rate of enzyme-free control.
According to inhibition rate of the concentrations, calculate the half inhibitory concentration IC50 of the compound BP to tyrosine kinase c-Abl. […]
Detect activity of different concentrations of the compound BDB on 384 holes reaction plate by enzyme-linked immune response on the inhibition of the kinase Abl, read the conversion rate data on Caliper, and convert the conversion rate to inhibition rate. […]

[4] = system: KBM5R (Bcr-Abl T315I mutation) cell subcutaneous implanted tumor; test: Leukemia subcutaneous xenograft growth inhibition test, KBM5R; type: in vivo, C57BL/6(Es-1^c) nude mice; settings: dosed once a day for two weeks, tumor volume; Imatinib 160 mg/Kg
From the text: Twice a week or every other day, use a vernier caliper to measure the tumor size. The calculation formula of tumor volume: V=0.5a×b^2, a, b respectively represent the long and short radius of the tumor.
as §1

[5] = system: KBM5R (Bcr-Abl T315I mutation) cells; test: KBM5R tumor growth inhibition test in vitro (ATP method); type: cell-based; settings: Homo sapiens, 72 hours incubation, read-out: IC50, cytotoxicity to KBM5R cells
Procedure: (§4) Using ATP method to determine the cell toxicity of compound BP of the present invention. Adjust the KBM5 and KBM5R cells to a suitable cell density. 140 ul cell suspensions inoculated each hole on 96-well plate. The vaccination density of each species cell is: 2000-6000; then the cell culture plate is placed in the incubator for 24 hours so that it is attached on the wall holes. Using 3 times dilution method to prepare the solution of BP compound with different concentrations, and add them into the correspond holes on 96-well plate with vaccination in advance, 10 μL of each hole, and its final concentrations are as follows: 100 μM, 33.3 μM, 11.1 μM, 3.70 μM, 1.23 μM, 0.41 μM, 0.14 μM, 0.046 μM, 0.015 μM. Duplicate 3 times of each concentration. After 72 hours incubation in 37° C. incubator, detect the cell proliferation of each hole with ATP method and calculate the drug concentration to median lethal concentration IC50 of KBM5 and KBM5R cells.
Using ATP method to determine the cell toxicity of compound BDB of the present invention. Adjust the KBM5 and KBM5R cells to a suitable cell density. 140 ul cell suspensions inoculated each hole on 96-well plate. The vaccination density of each species cell is: 2000-6000; then the cell culture plate is placed in the incubator for 24 hours so that it is attached on the wall holes. […]

[6] = system: KBM5 (human wild type Bcr-Abl) cells; test: KBM5 tumor growth inhibition test in vitro (ATP method); type: cell-based; settings: 72 hours incubation, read-out: IC50, cytotoxicity to KBM5 cells
Procedure: as §4, with “of compound BGC of the” for “of compound BP of the”, “the KBM5 cells to” for “the KBM5 and KBM5R cells to”, “solution of BGC compound with” for “solution of BP compound with”, “with ATP method, and calculate” for “with ATP method and calculate”, “of KBM5 cells.” for “of KBM5 and KBM5R cells.”
as §4
Using ATP method to determine the cell toxicity of compound BDB of the present invention. Adjust the KBM5 and KBM5R cells to a suitable cell density. 140 ul cell suspensions inoculated each hole on 96-well plate. […]

c-Abl tyrosine kinase, sequence (P00519 whole entry): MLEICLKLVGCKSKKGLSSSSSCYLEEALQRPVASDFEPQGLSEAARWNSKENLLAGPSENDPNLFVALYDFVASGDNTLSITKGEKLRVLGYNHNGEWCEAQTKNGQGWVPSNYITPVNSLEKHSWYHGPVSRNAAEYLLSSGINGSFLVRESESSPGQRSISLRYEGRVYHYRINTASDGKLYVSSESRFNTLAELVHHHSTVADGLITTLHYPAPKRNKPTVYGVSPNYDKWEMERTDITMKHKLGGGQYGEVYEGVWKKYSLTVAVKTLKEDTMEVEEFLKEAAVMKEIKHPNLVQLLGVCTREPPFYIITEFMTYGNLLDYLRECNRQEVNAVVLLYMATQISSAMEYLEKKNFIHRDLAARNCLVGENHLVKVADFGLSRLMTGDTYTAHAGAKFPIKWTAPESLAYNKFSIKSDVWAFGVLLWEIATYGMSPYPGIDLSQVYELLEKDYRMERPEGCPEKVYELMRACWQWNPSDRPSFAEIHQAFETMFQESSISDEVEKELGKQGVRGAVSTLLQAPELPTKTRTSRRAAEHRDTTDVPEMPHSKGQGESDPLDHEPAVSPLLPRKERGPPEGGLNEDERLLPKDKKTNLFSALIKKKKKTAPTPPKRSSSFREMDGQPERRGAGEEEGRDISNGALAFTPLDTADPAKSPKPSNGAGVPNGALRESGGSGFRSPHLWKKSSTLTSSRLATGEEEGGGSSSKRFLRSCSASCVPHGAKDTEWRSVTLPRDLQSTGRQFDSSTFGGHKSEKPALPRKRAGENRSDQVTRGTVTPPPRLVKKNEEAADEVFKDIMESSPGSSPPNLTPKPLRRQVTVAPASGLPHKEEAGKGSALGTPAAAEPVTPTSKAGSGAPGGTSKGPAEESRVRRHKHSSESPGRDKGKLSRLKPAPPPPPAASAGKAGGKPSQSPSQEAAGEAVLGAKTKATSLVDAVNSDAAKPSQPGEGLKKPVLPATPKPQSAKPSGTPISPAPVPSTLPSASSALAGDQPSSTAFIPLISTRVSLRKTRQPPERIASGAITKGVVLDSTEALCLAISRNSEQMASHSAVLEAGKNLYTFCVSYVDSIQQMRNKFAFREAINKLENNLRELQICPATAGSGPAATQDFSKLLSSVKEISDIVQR

CO[C@H](C(=O)N1Cc2[nH]nc(NC(=O)c3ccc(CN4CCN(CCC(=O)NCCCOCCOCCOCCCNC(=O)CCCC(=O)NCCCOCCOCCOCCCNC(=O)CCN5CCN(Cc6ccc(C(=O)Nc7n[nH]c8c7CN(C(=O)[C@H](OC)c7ccccc7)C8)cc6)CC5)CC4)cc3)c2C1)c1ccccc1 [compound BDB]
half-life [1]: 3.8 h
anti-tumor efficacy in KBM5 subcutaneous tumor model [2]: has anti-tumor efficacy
inhibitory effect compared with Imatinib in KBM5 subcutaneous tumor model [2]: same inhibitory effect with a dosage of 80 mg/kg as Imatinib of 160 mg/kg
IC50 [3]: 0.05 µM
anti-tumor efficacy in KBM5R subcutaneous tumor model [4]: has anti-tumor efficacy
IC50 [5]: 8.9 µM
IC50 [6]: 7 µM

Cc1ccc(NC(=O)c2ccc(CN3CCN(CCC(=O)NCCCOCCOCCOCCCNC(=O)CCCC(=O)NCCCOCCOCCOCCCNC(=O)CCN4CCN(Cc5ccc(C(=O)Nc6ccc(C)c(Nc7nccc(-c8cccnc8)n7)c6)cc5)CC4)CC3)cc2)cc1Nc1nccc(-c2cccnc2)n1 [compound BGC]
half-life [1]: 3.5 h
anti-tumor efficacy in KBM5 subcutaneous tumor model [2]: has anti-tumor efficacy
inhibitory effect compared with Imatinib in KBM5 subcutaneous tumor model [2]: same inhibitory effect with a dosage of 350 mg/kg as Imatinib of 160 mg/kg
IC50 [3]: 0.02 µM
IC50 [6]: 9 µM

Cc1ccc(C(=O)Nc2ccc(CN3CCN(CCC(=O)NCCCOCCOCCOCCCNC(=O)CCCC(=O)NCCCOCCOCCOCCCNC(=O)CCN4CCN(Cc5ccc(NC(=O)c6ccc(C)c(C#Cc7cnc8cccnn78)c6)cc5C(F)(F)F)CC4)CC3)c(C(F)(F)F)c2)cc1C#Cc1cnc2cccnn12 [compound BP]
half-life [1]: 3.5 h
anti-tumor efficacy in KBM5 subcutaneous tumor model [2]: has anti-tumor efficacy
inhibitory effect compared with Imatinib in KBM5 subcutaneous tumor model [2]: same inhibitory effect with a dosage of 80 mg/kg as Imatinib of 160 mg/kg
IC50 [3]: 0.01 µM
anti-tumor efficacy in KBM5R subcutaneous tumor model [4]: has anti-tumor efficacy
IC50 [5]: 5 µM
IC50 [6]: 2 µM
